Assay [1] deals with T1, ctPrp2-ctSpp2_211–254 complex (ctPrp2_270–921 with ctSpp2G-patch) (Thermochaetoides thermophila, UniProt G0SEG4).
T1 sequence (G0SEG4 270-921): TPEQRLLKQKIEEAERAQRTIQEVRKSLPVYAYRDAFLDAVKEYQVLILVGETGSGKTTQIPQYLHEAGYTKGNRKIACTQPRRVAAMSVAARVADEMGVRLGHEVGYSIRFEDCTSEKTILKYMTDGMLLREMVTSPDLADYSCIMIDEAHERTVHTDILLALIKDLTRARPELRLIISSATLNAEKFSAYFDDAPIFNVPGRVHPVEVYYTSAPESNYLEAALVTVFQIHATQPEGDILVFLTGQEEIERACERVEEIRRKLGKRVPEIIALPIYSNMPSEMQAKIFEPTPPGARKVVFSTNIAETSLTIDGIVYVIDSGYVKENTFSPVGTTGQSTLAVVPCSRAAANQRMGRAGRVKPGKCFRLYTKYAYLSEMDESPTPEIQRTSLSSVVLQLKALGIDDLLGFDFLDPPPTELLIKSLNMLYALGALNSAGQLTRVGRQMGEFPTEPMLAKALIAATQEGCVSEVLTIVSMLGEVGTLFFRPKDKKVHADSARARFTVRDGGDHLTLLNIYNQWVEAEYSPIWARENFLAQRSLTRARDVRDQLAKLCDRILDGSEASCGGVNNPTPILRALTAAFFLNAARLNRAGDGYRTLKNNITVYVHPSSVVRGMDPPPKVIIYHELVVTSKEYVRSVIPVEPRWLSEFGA
T1 sequence (G0SFN3 211-254 partner): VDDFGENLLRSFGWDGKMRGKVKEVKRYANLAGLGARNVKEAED
Kind of assay: ITC. The assay is classed as binding.

Assay [2] concerns the target ctPrp2 as used for ITC and for in-solution cross-linking (Chaetomium thermophilum). Kind of assay: ITC. For orientation: ITC needs no label: the signal is the heat of the interaction.

As usually defined, the pKd is −log10 of the Kd, conventionally taken in molar units. Higher therefore signals a small Kd.

pKd: −log10 of the molar value.

Molecule `Nc1ncnc2c1ncn2[C@@H]1O[C@H](COP(=O)(O)OP(=O)(O)O)[C@@H](O)[C@H]1O` [ADP] gave a negative-log Kd (pKd) in assay [1] of around 6.76.

As for “ctSpp2_(211–254), G-patch domain of Spp2 from Chaetomium thermophilum (domain or fragment)”, in assay [2], the pKd is 6.14.

The values above are taken from article PMC7022188 (Proceedings of the National Academy of Sciences of the …, 2020).
